Results taken from US9738655B2, “Tetrahydroisoquinolines containing substituted azoles as factor XIa inhibitors” (BRISTOL-MYERS SQUIBB COMPANY, priority 2013, dated 2017).
Structures can show the parent of a compound that is named as a salt.

Molecular target: purified human Factor XIa (Homo sapiens (Human), UniProt P03951)
Assay: Factor XIa enzyme inhibition assay (chromogenic substrate S-2366)
Settings: not given

Sequence of purified human Factor XIa (P03951 388-625): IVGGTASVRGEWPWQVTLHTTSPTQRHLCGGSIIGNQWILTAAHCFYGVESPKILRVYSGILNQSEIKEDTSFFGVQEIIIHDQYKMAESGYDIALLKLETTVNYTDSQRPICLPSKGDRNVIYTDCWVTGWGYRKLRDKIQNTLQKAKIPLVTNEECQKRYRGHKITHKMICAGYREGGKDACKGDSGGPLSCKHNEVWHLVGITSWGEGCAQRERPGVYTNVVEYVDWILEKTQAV
Sequence of purified human Factor XIa (P03951 19-387 partner): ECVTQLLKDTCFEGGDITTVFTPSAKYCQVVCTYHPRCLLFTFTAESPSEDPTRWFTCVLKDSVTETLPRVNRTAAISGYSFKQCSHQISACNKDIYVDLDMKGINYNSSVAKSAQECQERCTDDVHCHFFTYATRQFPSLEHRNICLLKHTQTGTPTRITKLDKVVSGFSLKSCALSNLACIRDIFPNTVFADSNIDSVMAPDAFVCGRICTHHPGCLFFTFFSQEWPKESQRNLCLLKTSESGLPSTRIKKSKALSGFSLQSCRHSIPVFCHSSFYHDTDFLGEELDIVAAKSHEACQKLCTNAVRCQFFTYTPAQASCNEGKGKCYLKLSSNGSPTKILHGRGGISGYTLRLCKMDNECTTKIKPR

Ki [nM]	Compound
< 5	COc1ncc(-c2cccc3c2CCN(C(=O)c2cn(-c4cccc(Cl)c4F)nn2)C3C(=O)Nc2ccc(C(=O)O)cc2)c(OC)n1 (stereo not shown) [Example 158, 4-(2-(1-(3-chloro-2-fluorophenyl)-1H-1,2,3-triazole-4-carbonyl)-5-(2,4-dimethoxypyrimidin-5-yl)-1,2,3,4-tetrahydroisoquinoline-1-carboxamido)benzoic acid]

Same assay, conditions: read-out: Factor XIa Ki; measured at 25° C.

Compound	Ki [nM]
4-(2-(1-(3-chloro-2- fluorophenyl)-5-hydroxy- 1H-pyrazole-4-carbonyl)-5- (4-methylpiperazin-1-yl)- 1,2,3,4- tetrahydroisoquinoline-1- carboxamido)benzoic acid, 2 TFA salt. [Example 214]	713
Nc1cc(-c2cccc3c2CCN(C(=O)c2cn(-c4cccc(Cl)c4F)nn2)C3C(=O)Nc2ccc(C(=O)O)cc2)ccn1 (stereo not shown) [Example 38, 4-(5-(2-aminopyridin-4-yl)-2-(1-(3-chloro-2-fluorophenyl)-1H-1,2,3-triazole-4-carbonyl)-1,2,3,4-tetrahydroisoquinoline-1-carboxamido)benzoic acid, bis-TFA salt]	< 5
O=C(O)c1ccc(NC(=O)C2c3cccc(-c4ccc5c(c4)CCNC5)c3CCN2C(=O)c2cn(-c3cccc(Cl)c3F)nn2)cc1 (stereo not shown) [Example 40, 4-(2-(1-(3-chloro-2-fluorophenyl)-1H-1,2,3-triazole-4-carbonyl)-1,1′,2,2′,3,3′,4,4′-octahydro-[5,6′-biisoquinoline]-1-carboxamido)benzoic acid, TFA salt]	< 5
CNC(=O)c1ccc(-c2cccc3c2CCN(C(=O)c2cnn(-c4cccc(Cl)c4F)c2N)C3C(=O)Nc2ccc(C(=O)O)cc2)cn1 (stereo not shown) [Example 47, 4-(2-(5-Amino-1-(3-chloro-2-fluorophenyl)-1H-pyrazole-4-carbonyl)-5-(6-(methylcarbamoyl)pyridin-3-yl)-1,2,3,4-tetrahydroisoquinoline-1-carboxamido)benzoic acid, TFA salt]	< 5
CC1(O)CCN(c2cccc3c2CCN(C(=O)c2cnn(-c4cccc(Cl)c4F)c2)C3C(=O)Nc2ccc(C(=O)O)cc2)CC1 (stereo not shown) [Example 68, 4-(2-(1-(3-chloro-2-fluorophenyl)-1H-pyrazole-4-carbonyl)-5-(4-hydroxy-4-methylpiperidin-1-yl)-1,2,3,4-tetrahydroisoquinoline-1-carboxamido)benzoic acid, TFA salt]	< 5
O=C(O)c1ccc(NC(=O)C2c3cccc(N4CCC(O)CC4)c3CCN2C(=O)c2cn(-c3cccc(Cl)c3F)nn2)cc1 (stereo not shown) [Example 85, 4-(2-(1-(3-chloro-2-fluorophenyl)-1H-1,2,3-triazole-4-carbonyl)-5-(4-hydroxypiperidin-1-yl)-1,2,3,4-tetrahydroisoquinoline-1-carboxamido)benzoic acid, TFA salt]	< 5
O=C(N[C@H]1CC[C@@H](C(=O)O)CC1)C1c2cccc(-c3cncnc3)c2CCN1C(=O)c1cn(-c2cccc(Cl)c2F)nn1 (stereo partly drawn) [Example 133, (1R,4R)-4-(2-(1-(3-chloro-2-fluorophenyl)-1H-1,2,3-triazole-4-carbonyl)-5-(pyrimidin-5-yl)-1,2,3,4-tetrahydroisoquinoline-1-carboxamido) cyclohexanecarboxylic acid]	12.6
COC1CCN(c2cccc3c2CCN(C(=O)c2sc(-c4cccnc4)nc2C)C3C(=O)Nc2ccc(C(=O)O)cc2)CC1 (stereo not shown) [Example 146, 4-(5-(4-methoxypiperidin-1-yl)-2-(4-methyl-2-(pyridin-3-yl)thiazole-5-carbonyl)-1,2,3,4-tetrahydroisoquinoline-1-carboxamido)benzoic acid, 2 TFA salt]	1200
COC1CCN(c2cccc3c2CCN(C(=O)c2cc(-c4ccccc4Cl)no2)C3C(=O)Nc2ccc(C(=O)O)cc2)CC1 (stereo not shown) [Example 148, 4-(2-(3-(2-chlorophenyl)isoxazole-5-carbonyl)-5-(4-methoxypiperidin-1-yl)-1,2,3,4-tetrahydroisoquinoline-1-carboxamido)benzoic acid, TFA salt]	69.5
COC1CCN(c2cccc3c2CCN(C(=O)C2CCN(c4ccc(OC(C)C)cc4)C2=O)C3C(=O)Nc2ccc(C(=O)O)cc2)CC1 (stereo not shown) [Example 149, 4-(2-(1-(4-isopropoxyphenyl)-2-oxopyrrolidine-3-carbonyl)-5-(4-methoxypiperidin-1-yl)-1,2,3,4-tetrahydroisoquinoline-1-carboxamido)benzoic acid, TFA salt]	7160
COC1CCN(c2cccc3c2CCN(C(=O)c2cc(-c4cccc(F)c4)no2)C3C(=O)Nc2ccc(C(=O)O)cc2)CC1 (stereo not shown) [Example 152, 4-(2-(3-(3-fluorophenyl)isoxazole-5-carbonyl)-5-(4-methoxypiperidin-1-yl)-1,2,3,4-tetrahydroisoquinoline-1-carboxamido)benzoic acid, TFA salt]	466
NCc1ccc(-c2cccc3c2CCN(C(=O)c2cn(-c4cccc(Cl)c4F)nn2)C3C(=O)Nc2ccc(C(=O)O)cc2)cc1 (stereo not shown) [Example 163, 4-(5-(4-(aminomethyl)phenyl)-2-(1-(3-chloro-2-fluorophenyl)-1H-1,2,3-triazole-4-carbonyl)-1,2,3,4-tetrahydroisoquinoline-1-carboxamido)benzoic acid, TFA salt]	< 5
Cn1ncc2c(-c3cccc4c3CCN(C(=O)c3cn(-c5cccc(Cl)c5F)nn3)C4C(=O)Nc3ccc(C(=O)O)cc3)cccc21 (stereo not shown) [Example 169, 4-(2-(1-(3-chloro-2-fluorophenyl)-1H-1,2,3-triazole-4-carbonyl)-5-(1-methyl-1H-indazol-4-yl)-1,2,3,4-tetrahydroisoquinoline-1-carboxamido)benzoic acid]	< 5

Further lines, results first:

Ki [nM]	Compound
13.4	O=C(O)c1ccc(NC(=O)C2c3cccc(N4CCOCC4=O)c3CCN2C(=O)[C@H]2CC(c3cccc(Cl)c3F)=NO2)cc1 (stereo in doubt) [Example 290, 4-((S)-2-((R)-3-(3-chloro-2-fluorophenyl)-4,5-dihydroisoxazole-5-carbonyl)-5-(3-oxomorpholino)-1,2,3,4-tetrahydroisoquinoline-1-carboxamido)benzoic acid]
5580	O=C(O)c1ccc(NC(=O)[C@H]2c3ccccc3CCN2C(=O)c2cn(-c3cccc(Cl)c3F)nn2)cc1 [Example 2, (R)-4-(2-(1-(3-Chloro-2-fluorophenyl)-1H-1,2,3-triazole-4-carbonyl)-1,2,3,4-tetrahydroisoquinoline-1-carboxamido)benzoic acid]
< 5	Nc1c(C(=O)N2CCc3c(-c4cncnc4)cccc3C2C(=O)Nc2ccc(C(=O)O)cc2)cnn1-c1cccc(Cl)c1F (stereo not shown) [Example 46, 4-(2-(5-Amino-1-(3-chloro-2-fluorophenyl)-1H-pyrazole-4-carbonyl)-5-(pyrimidin-5-yl)-1,2,3,4-tetrahydroisoquinoline-1-carboxamido)benzoic acid, TFA salt]
29.3	CN1CCC(=O)N(c2cccc3c2CCN(C(=O)c2cnn(-c4cccc(Cl)c4F)c2)C3C(=O)Nc2ccc(C(=O)O)cc2)CC1 (stereo not shown) [Example 70, 4-(2-(1-(3-chloro-2-fluorophenyl)-1H-pyrazole-4-carbonyl)-5-(4-methyl-7-oxo-1,4-diazepan-1-yl)-1,2,3,4-tetrahydroisoquinoline-1-carboxamido)benzoic acid, TFA salt]
< 5	O=C(O)c1ccc(NC(=O)[C@@H]2c3cccc(N4CCC(O)CC4)c3CCN2C(=O)c2cn(-c3cccc(Cl)c3F)nn2)cc1 [Example 86, (S)-4-(2-(1-(3-chloro-2-fluorophenyl)-1H-1,2,3-triazole-4-carbonyl)-5-(4-hydroxypiperidin-1-yl)-1,2,3,4-tetrahydroisoquinoline-1-carboxamido)benzoic acid, TFA salt]
43	O=C(O)c1ccc(NC(=O)[C@H]2c3cccc(N4CCC(O)CC4)c3CCN2C(=O)c2cn(-c3cccc(Cl)c3F)nn2)cc1 [Example 87, (R)-4-(2-(1-(3-chloro-2-fluorophenyl)-1H-1,2,3-triazole-4-carbonyl)-5-(4-hydroxypiperidin-1-yl)-1,2,3,4-tetrahydroisoquinoline-1-carboxamido)benzoic acid, TFA salt]
6.04	O=C(O)c1ccc(NC(=O)C2c3cccc(NCCO)c3CCN2C(=O)c2cn(-c3cccc(Cl)c3F)nn2)cc1 (stereo not shown) [Example 111, 4-(2-(1-(3-Chloro-2-fluorophenyl)-1H-1,2,3-triazole-4-carbonyl)-5-((2-hydroxyethyl)amino)-1,2,3,4-tetrahydroisoquinoline-1-carboxamido)benzoic acid, TFA salt]
56.2	COC(=O)C12CCC(NC(=O)C3c4cccc(-c5cncnc5)c4CCN3C(=O)c3cn(-c4cccc(Cl)c4F)nn3)(CC1)CC2 (stereo not shown) [Example 142, Methyl 4-(2-{[1-(3-chloro-2-fluorophenyl)-1H-1,2,3-triazol-4-yl]carbonyl}-5-(pyrimidin-5-yl)-1,2,3,4-tetrahydroisoquinoline-1-amido)bicyclo[2.2.2]octane-1-carboxylate, TFA salt]
9.17	O=C(O)c1ccc(NC(=O)C2c3cccc(-c4cccc(-c5ccn[nH]5)c4)c3CCN2C(=O)c2cn(-c3cccc(Cl)c3F)nn2)cc1 (stereo not shown) [Example 164, 4-(5-(3-(1H-pyrazol-5-yl)phenyl)-2-(1-(3-chloro-2-fluorophenyl)-1H-1,2,3-triazole-4-carbonyl)-1,2,3,4-tetrahydroisoquinoline-1-carboxamido)benzoic acid]
< 5	O=C(O)c1ccc(NC(=O)C2c3cccc(C4=CCOCC4)c3CCN2C(=O)c2cn(-c3cccc(Cl)c3F)nn2)cc1 (stereo not shown) [Example 165, 4-(2-(1-(3-chloro-2-fluorophenyl)-1H-1,2,3-triazole-4-carbonyl)-5-(3,6-dihydro-2H-pyran-4-yl)-1,2,3,4-tetrahydroisoquinoline-1-carboxamido)benzoic acid]
< 5	CNC(=O)c1ccc(-c2cccc3c2CCN(C(=O)c2cn(-c4cccc(Cl)c4F)nn2)C3C(=O)Nc2ccc(C(=O)O)cc2)cn1 (stereo not shown) [Example 166, 4-(2-(1-(3-chloro-2-fluorophenyl)-1H-1,2,3-triazole-4-carbonyl)-5-(6-(methylcarbamoyl)pyridin-3-yl)-1,2,3,4-tetrahydroisoquinoline-1-carboxamido)benzoic acid, TFA salt]
